The text below walks through data of patent US20260130907A1 (DANA-FARBER CANCER INSTITUTE, INC., priority 2022, published 2026).

≈ marks a conversion by molar mass, not a printed value. Read-outs that look alike come from different tables or passages of the source.

A short description of series [1]: Metabolic stability in human liver microsome. The format is in vitro ADME. The following applies: pH 7.4; human liver microsomes with NADPH, 37° C., 0-60 min. How it is done:
• K2HPO4 was dissolved in water to a final concentration of 50 mM, and then adjusted pH to 7.4 with HCl and filtered through a 0.22 μm filter.
• 1 mg/mL stock of terfenadine/tolbutamide with DMSO was prepared, and then made into quenching solution (5/10 ng/mL terfenadine/tolbutamide) with can.
• 10 mM test compound stock with DMSO was prepared, and then made into 200 μM working solution with DMSO.
• 10 mM control compound (dextromethorphan) stock with DMSO was prepared, and then made into 200 μM working solution with DMSO.
• Liver microsomes were thawed in 37° C. water bath, and then made into 0.63 mg/mL liver microsomes working solution with phosphate buffer.
• 5 mM NADPH working solution was prepared with phosphate buffer.
• a) 1.5 μL test compound/control compound working solution was added to 238.5 μL liver microsome (n=1). • b) The solution was pre-incubated at 37° C. for 5 min. • c) The reaction was started by adding 60 μL NADPH working solution. • d) At each time point (0, 5, 15, 30 and 60 min), 30 μL reaction mixture was removed and added to 300 μL quenching solution. • e) All samples were centrifuged at 4,000 rpm at 4° C. for 15 min, then 100 μL of supernatant was transferred with 100 μL water for LC-MS/MS analysis.

The nature of series [2]: Kinetic solubility. The format is physicochemical. Conditions: kinetic from dmso stock.
Series [3] addresses T1, B cell lymphoma 6 (BCL6) (Homo sapiens, UniProt P41182).
T1 construct: Endogenous B cell lymphoma 6 (BCL6) was tagged with the 11-amino acid Small BiT (SmBiT); endogenous in cells; host or cells: SU-DHL-4 (CRISPR/Cas9 knock-in, single cell clone)
The series can be described thus: HiBiT cellular degradation assay in SU-DHL-4 cells. The format is cell-based. Conditions: for DC50: concentration to reach 50% degradation of endogenous SmBiT-tagged BCL6, SU-DHL-4 cells, 24 hours of compound treatment. How it is done:
DC50 (concentration to reach 50% degradation) values were determined from a cellular degradation assay (HiBiT, Promega™) in Su-DHL-4 cells (Table 1). Endogenous B cell lymphoma 6 (BCL6) was tagged with the 11-amino acid Small BiT (SmBiT) through clustered regularly interspaced short palindromic repeats (CRISPR)/CRISPR-associated protein 9 (Cas9) gene editing and single cell clone selection. After 24 hours of compound treatment, cells were lysed and incubated with Large BiT (LgBiT) protein to reconstitute intact nanoluciferase. Substrate was then added and relative luciferase units were measured. Degradation levels for each treatment were taken as a percentage compared to the control, 100% DMSO (Prism).
Background: HiBiT is a short tag that completes a luciferase, so light tracks the accessible tagged protein.

Setting [4] is: aqueous buffer, 50 mM phosphate buffer pH 7.4, 24 hours at room temperature, read-out: Kinetic solubility @pH 7.4.
Where [5] appears, read: FaSSIF, read-out: Kinetic solubility (FaSSIF).
The mark [6] stands for this setting: FeSSIF, read-out: Kinetic solubility (FeSSIF).

For the compound `C[C@@H]1CN(c2ncc(Cl)c(Nc3ccc4c(c3)n(CCC(C)(C)O)c(=O)n4C)n2)C[C@H](CN)C1(F)F` (single isomer, unassigned) [Compound 2a], the microsomal CLint at 1 µM in series [1] is less than 6.1 µL/min/mg. Also, the solubility (kinetic) at 24 h in series [2] (setting [4]) is 266 µM (≈ 139 µg/mL). Moreover, the DC50 in series [3] was found to be 105 nM.

`CNC(=O)COc1cc2cc(Nc3nc(N4C[C@H](CCN)C(F)(F)[C@H](C)C4)ncc3Cl)ccc2n(C)c1=O` (single isomer, unassigned) [Compound 51a] came in with a microsomal CLint at 1 µM in series [1] of less than 6.1 µL/min/mg. Further, the results for the solubility (kinetic) at 24 h in series [2] (setting [5]), in series [2] (setting [6]) and in series [2] (setting [4]) were 6.35 µM (≈ 3.49 µg/mL), 113 µM (≈ 62.2 µg/mL) and less than 1.56 µM, respectively. This compound returned a DC50 in series [3] of 2 nM.

`CNC(=O)COc1cc2cc(Nc3nc(N4C[C@H](C)C[C@H](C)C4)ncc3Cl)ccc2n(C)c1=O` [BI-3802] yielded a microsomal CLint at 1 µM in series [1] of 23.8 µL/min/mg. The solubility (kinetic) at 24 h in series [2] (setting [5]) is 2.97 µM (≈ 1.44 µg/mL); in series [2] (setting [6]), 11.3 µM (≈ 5.48 µg/mL); in series [2] (setting [4]) it was less than 1.56 µM. In series [3], this compound had a DC50 of 5 nM.

Compound `C[C@@H]1CN(c2ncc(Cl)c(Nc3ccc4c(c3)n(CCC(C)(C)O)c(=O)n4C)n2)C[C@H](C)C1(F)F` [CCT-369260] yielded a microsomal CLint at 1 µM in series [1] of 12.3 µL/min/mg. Further, the results for the solubility (kinetic) at 24 h in series [2] (setting [5]), in series [2] (setting [6]) and in series [2] (setting [4]) were 2.92 µM (≈ 1.49 µg/mL), 216 µM (≈ 110 µg/mL) and less than 1.56 µM, respectively.

For the compound `CNC(=O)COc1cc2cc(Nc3nc(N4C[C@@H](C)C(F)(F)[C@@H](C)C4)ncc3Cl)ccc2n(C)c1=O` [Cmp A], the microsomal CLint at 1 µM in series [1] was less than 3.7 µL/min/mg. In addition, the kinetic solubility at 24 h was less than 1.56 µM in series [2] (setting [5]), 1.82 µM (≈ 0.948 µg/mL) in series [2] (setting [6]) and less than 1.56 µM in series [2] (setting [4]). It took 5 nM to reach half-maximal degradation in series [3] (DC50).

On to `C[C@@H]1C[C@H](C)CN(c2ncc(Cl)c(Nc3ccc4c(c3)n(CCC(C)(C)O)c(=O)n4C)n2)C1` [Cmp B], for which the microsomal CLint at 1 µM in series [1] is 30 µL/min/mg. Further, the figures for the solubility (kinetic) at 24 h in series [2] (setting [5]), in series [2] (setting [6]) and in series [2] (setting [4]) were less than 1.56 µM, 213 µM (≈ 101 µg/mL) and less than 1.56 µM, respectively.

`C[C@@H]1CN(c2ncc(Cl)c(Nc3ccc4c(c3)n(CCC(C)(C)O)c(=O)n4C)n2)C[C@H](N)C1(F)F` [Compound 1, 5-[[2-[(3S,5R)-3-Amino-4,4-difluoro-5-methyl-1-piperidyl]-5-chloro-pyrimidin-4-yl]amino]-3-(3-hydroxy-3-methyl-butyl)-1-methyl-benzimidazol-2-one] returned a microsomal CLint at 1 µM in series [1] of less than 6.1 µL/min/mg. Also, the figures for the kinetic solubility at 24 h in series [2] (setting [5]), in series [2] (setting [6]) and in series [2] (setting [4]) were 208 µM (≈ 106 µg/mL), 232 µM (≈ 118 µg/mL) and 108 µM (≈ 55.1 µg/mL), respectively. In addition, the DC50 in series [3] is 20 nM. Moreover, the “BCL6 degrader status (in words)” value in series [3] (conclusion drawn from Table 1) is “degraders of BCL6”.

As usually defined, the microsomal CLint is a measure of how fast metabolising enzymes remove a compound, apart from limits set by blood flow. Low values mean slow turnover, high ones rapid turnover. What is called kinetic solubility is the concentration staying in solution when a stock, usually in DMSO, is diluted into the medium. As a reminder, the DC50 is the concentration giving 50% degradation. A low value points to degradation at low concentration.
